Reference: patent publication US20240075046A1 (priority 2020, published 2024)
Entries after “also recorded” stand apart in the source; their conditions may differ.

Key:
[1] = test system: AR, CDC25, GREB1, PGR and TFF1; test: Expression of genes upregulated by estradiol binding to ERα, real-time PCR in MCF7 cells; assay type: cell-based; details: 18 hours, FIGS. 10D-10H
MCF7 cells [2] = assay type: cell-based
ERα [3] = biological target: T1, ERα (Homo sapiens, UniProt P03372); test: ERα protein level, western blot in MCF7 cells; assay type: cell-based; design: The intensity of ERα in the nucleus of MCF7 cells was reduced with time; endogenous in cells; host or cells: MCF7; details: 18 hours, single cannabinoids vs 1:25:1,000 combination, FIGS. 10A-10B
T1 sequence (P03372 whole entry): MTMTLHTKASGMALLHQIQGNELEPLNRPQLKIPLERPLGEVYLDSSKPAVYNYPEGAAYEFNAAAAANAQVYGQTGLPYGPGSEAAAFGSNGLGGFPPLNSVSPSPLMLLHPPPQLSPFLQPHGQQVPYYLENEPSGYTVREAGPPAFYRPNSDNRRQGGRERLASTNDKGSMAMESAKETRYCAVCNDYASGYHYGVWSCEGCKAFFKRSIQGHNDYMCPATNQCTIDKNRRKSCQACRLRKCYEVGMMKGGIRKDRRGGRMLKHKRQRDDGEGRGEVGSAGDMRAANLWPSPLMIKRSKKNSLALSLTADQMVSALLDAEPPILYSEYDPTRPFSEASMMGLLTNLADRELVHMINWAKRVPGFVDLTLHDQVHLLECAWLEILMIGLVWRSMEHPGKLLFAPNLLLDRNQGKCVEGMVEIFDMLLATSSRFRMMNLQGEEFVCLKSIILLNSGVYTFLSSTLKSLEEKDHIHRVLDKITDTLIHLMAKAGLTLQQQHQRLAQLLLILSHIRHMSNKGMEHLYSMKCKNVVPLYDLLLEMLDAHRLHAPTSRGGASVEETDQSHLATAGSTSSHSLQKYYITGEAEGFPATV

[4] = test system: Immortalized Human Endometriotic Cell Line (12Z); test: Endometriosis model, Annexin V assay, cell viability; assay type: cell-based; details: 12Z cells; 24 hours; CF2 concentration of 1 μg/mL
Protocol: To determine the therapeutic effects of CF2 on endometriosis, an Immortalized Human Endometriotic Cell Line (12Z) was used. Cells were incubated in a 12 well plate, each containing 1×10^6 cells. The cells were treated with either vehicle, or CF2 (0.125 to 1 μg/mL each) for 24 hours. Apoptosis was assessed using the Annexin V assay as detailed above. Data are presented as mean±S.E.M (n=3) and statistically analyzed by two-way ANOVA (*p<0.05, ****p<0.0001).

ESR1 = ESR1 expression level, real-time PCR in MCF7 cells; assay type: cell-based; details: 18 hours, FIG. 10C
Protocol: The expression level of ESR1, the gene encoding for ERα, using real-time PCR following 18 hours of CANN14 treatment was examined. RNA was extracted from 5×10^5 cells and isolated using TRI reagents (Sigma, UK) according to the manufacturer's protocol. The RNA was reverse transcribed with Maxima First Strand cDNA synthesis kit (Life Technologies, Burlington, Canada) and RT-qPCR was preformed using Taq-Man (Life Technologies Ltd, UK). The fold change of calculated compared to the housekeeping gene 18S, using the formula 2^(−ΔΔCT). DMSO was used as a control. […] The activity of ERα as a transcriptional regulator by assessing its binding to Estrogen Response Elements (ERE) following CANN14 treatment was then examined. MCF7 cells were transfected with ERE-luciferase plasmid and luciferase activity was measured.
Next, the effect of the three identified cannabinoids on ERα expression and activity was examined. ERα protein level in MCF7, T47D, and ZR-75-1 cells was measured following 18 hours treatment with either THC, CBN or CF2, separately or in combinations (FIGS. 7A-7B, 8A-8B, and 9A-9B, respectively). […] ESR1 expression level was lowest following treatment with CF2 alone (FIG. 10C).

ERα [5] = biological target: T1, ERα; test: Endometriosis model, estrogen receptor western blot in 12Z cell line; assay type: cell-based; design: endogenous in cells; host or cells: 12Z; details: 5 h, CF2 0.125 to 0.75 μg/mL
MCF7 cells [6] = details: extracts 4 μg/ml, 24 hours, tamoxifen 5 μM, alone or combined
[7] = test system: cleaved caspase-3 in T47D cells; test: Cleaved caspase-3 western blot; assay type: cell-based; details: 8 hours, CANN14 4 μg/ml, tamoxifen 5 μM, relative to DMSO control
[8] = test system: cleaved caspase-3 in MCF7 cells; test: Cleaved caspase-3 western blot; assay type: cell-based; details: 8 hours, CANN14 4 μg/ml, tamoxifen 5 μM, relative to DMSO control
ZR-75-1 cells = test: Apoptosis by Annexin V/PI staining, flow cytometry; assay type: cell-based; details: CANN14 4 μg/ml, tamoxifen 5 μM or combination
MCF7 cells [9] = test: In-vivo mouse model, subcutaneous MCF7 ectopic tumor; details: nude mice, MCF7 tumors; IP three times weekly; CANN14 25 mg/kg, tamoxifen 2 mg/kg
T47D cells = test: Apoptosis by Annexin V/PI staining, flow cytometry; assay type: cell-based; details: CANN14 4 μg/ml, tamoxifen 5 μM or combination
[10] = test system: cleaved caspase-3 in ZR-75-1 cells; test: Cleaved caspase-3 western blot; assay type: cell-based; details: 8 hours, CANN14 4 μg/ml, tamoxifen 5 μM, relative to DMSO control

Structure (SMILES) | expression levels of ERα target genes [1] | apoptotic effect compared with the original 1:25:1,000 combination of CF2, CBN, and THC (MCF7 cells [2]) | apoptotic effect compared with the CANN14 whole extract (MCF7 cells [2]; MCF7 cells, higher concentrations of CF2, in combination with tamoxifen, FIG. 4G) | ERα protein level (ERα [3]) | cell viability (% Live cells) [4] | ESR1 expression level (ESR1) | ERα protein level (ERα [5]) | % Cell death (MCF7 cells [6]) | % Apoptosis (MCF7 cells [2]; MCF7 cells, CANN14 4 μg/ml, tamoxifen 5 μM or combination) | cleaved caspase-3, normalized intensity (treatment/control) [7] | cleaved caspase-3, normalized intensity (treatment/control) [8] | % Apoptosis (ZR-75-1 cells) | ectopic tumor volume / tumor size (MCF7 cells [9]) | % Apoptosis (T47D cells) | cleaved caspase-3, normalized intensity (treatment/control) [10]
CCCCCc1cc(O)c2c(c1)OC(C)(C)c1ccc(C)cc1-2 [CBN, cannabinol, reference compound] | reduced to the lowest level compared to the control | – | – | – | – | – | – | – | – | – | – | – | – | – | –
CCCCCc1cc(O)c(C/C=C(/C)CCC=C(C)C)c(O)c1OC(C)=O [CF2] | reduced to the lowest level compared to the control | same apoptotic effect as the original combination of the three phytocannabinoids | significantly superior to the CANN14 whole extract | significantly reduced the most; also recorded: reduces ERα protein level | statistically significant reduction in cell viability; also recorded: reduces cell viability | lowest | significantly reduced; also recorded: reduces | – | – | – | – | – | – | – | –
CC/C(=C(\c1ccccc1)c1ccc(OCCN(C)C)cc1)c1ccccc1 [tamoxifen] | – | – | – | – | – | – | – | did not affect the viability of the cells | not affected | increased induction of cleaved caspase-3 | increased induction of cleaved caspase-3 | not affected | trend of smaller tumor sizes | not affected | increased induction of cleaved caspase-3
